SMILES strings stand for the structures.

What is called IC50 is the point on the concentration scale where inhibition reaches its midpoint.

Data set [1] relates to Trypanosoma cruzi. The experiment in a line: GSK_TCAKS: pIC50 Trypanosoma cruzi viability assay using beta-GAL activity. This assay was run at single shot at 5uM compound concentration per well. The biological reagents consisted of NIH-3T3 host cells and trypomastigotes parasitic cells; both cell types were set to a 3.3 * 10^5 cells/mL dilution in assay DMEM by means of a CASY cell counter device using a 60um capillary. 6 uL of the mixture were dispensed per well (about 1 * 10^3 host-cells and 1 * 10^3 parasites) with a Multidrop Combi dispenser. […] In all wells, the percentage of DMSO never exceeded 0.5%. Plates incubated for four days at 37C, 5% CO2. The substrate used for the assay fluorescence intensity (FLINT) readout was resorufin-beta-D-galactopiranoside (Sigma-Aldrich) at 5uM per well. It was diluted in PBS supplemented with the soft detergent Igepal (Fluka). The settings on record: Tulahuen, NIH3T3. The data set is classed as functional, organism-based, Mus musculus.

In data set [2] the test system is Trypanosoma cruzi. Put plainly: (§1) GSK_TCAKS: pIC50 Trypanosoma cruzi Imaging: Infected Cells. […] Cells were then washed once with PBS before infection. T. cruzi trypomastigotes, collected at days 5 to 8 after infection from LLC-MK2 parasite infected cultures, were allowed to swim out for 4h at 37C from a centrifuged pellet (2,500 rpm/10 min/room temperature). Trypomastigotes were then collected and counted in a CASY Cell Counter. Trypomastigotes, in supplemented DMEM, were added to H9c2 cultures in a multiplicity of infection of 1 and incubated for 18 h. Cells were washed once with PBS before incubation of the infected H9c2 monolayer with trypsin (Life-Technologies) to detach cells from the flask. Cells were counted in a CASY Cell Counter using a 150 um capillary and their density set at 5 * 10^4 cells per mL in supplemented assay DMEM. Infected H9c2 were dispensed into 384-well poly-lysine coated assay plates at 50uL per well using a Multidrop Combi dispenser. After seeding them, the plates were incubated at 37C, 5% CO2 for 72h. Cultures were then fixed and stained by addition of 50 uL of a solution containing 8% formaldehyde and 4 uM DRAQ5 DNA dye (BioStatus, UK) per well. […] Five images were collected per well for reliable statistical analysis. Automated image analysis was performed with a script developed on Acapella High Content Imaging and Analysis Software (PerkinElmer). Output: percentage of infected cells per well as a second infection marker. The data set is classed as functional, organism-based, Rattus norvegicus. Particulars: H9c2, 4 h.

Data set [3] concerns Trypanosoma cruzi. The experiment in a line: GSK_TCAKS: pIC50 Trypanosoma cruzi Imaging: Amastigotes/Cell. […] Cells were then washed once with PBS before infection. T. cruzi trypomastigotes, collected at days 5 to 8 after infection from LLC-MK2 parasite infected cultures, were allowed to swim out for 4h at 37C from a centrifuged pellet (2,500 rpm/10 min/room temperature). Trypomastigotes were then collected and counted in a CASY Cell Counter. Trypomastigotes, in supplemented DMEM, were added to H9c2 cultures in a multiplicity of infection of 1 and incubated for 18 h. Cells were washed once with PBS before incubation of the infected H9c2 monolayer with trypsin (Life-Technologies) to detach cells from the flask. Cells were counted in a CASY Cell Counter using a 150 um capillary and their density set at 5 * 10^4 cells per mL in supplemented assay DMEM. Infected H9c2 were dispensed into 384-well poly-lysine coated assay plates at 50uL per well using a Multidrop Combi dispenser. After seeding them, the plates were incubated at 37C, 5% CO2 for 72h. Cultures were then fixed and stained by addition of 50 uL of a solution containing 8% formaldehyde and 4 uM DRAQ5 DNA dye (BioStatus, UK) per well. […] Five images were collected per well for reliable statistical analysis. Automated image analysis was performed with a script developed on Acapella High Content Imaging and Analysis Software (PerkinElmer). Output: number of amastigotes per cell as infection level measurement. It is filed as functional, organism-based, Rattus norvegicus. The settings on record: H9c2, 4 h.

Data set [4] relates to Trypanosoma cruzi. The description is as §1, with “H2C9” for “Trypanosoma cruzi”, “H9c2 Host Cardiomyocytes.” for “Infected Cells.”, “Number” for “percentage”, “H9c2 Host Cardiomyocytes nuclei to determine drug-related cytotoxicity.” for “infected cells per well as a second infection marker.”. The data set is classed as functional, organism-based, Rattus norvegicus. Particulars: H9c2, 4 h.

In data set [5] the test system is Leishmania donovani. The experiment in a line: GSK_TCAKS: pIC50 Leishmania donovani viability assay using fluorescence intensity. Assay plates (1536-well) were prepared by adding 30nL per well of compound. For single shot assay, the final compound concentration was 5uM. […] Briefly, eGFP LdBOB axenic amastigotes were harvested, fixed and counted in a CASY cell counter (Roche-Applied Science). A final concentration of 1.5 * 10^5 cells per well were prepared in amastigote media containing 500 U/mL penicillin/streptomycin (Invitrogen) and 6uL was dispensed to each experimental well using a Multidrop Combi dispenser (Thermo Scientific). 6uL of assay media was dispensed to control columns used as reference for 100% compound response. Following incubation for 72 h at 37C, 5% CO2, 2 uL of resazurin was added to each well at a final concentration of 0.5 mM in phosphate buffered saline (PBS) with IGEPAL (Sigma-Aldrich), 0.05% (v/v). It is filed as functional, organism-based.

The subject of data set [6] is Leishmania donovani. Put plainly: GSK_TCAKS: pIC50 Leishmania donovani Imaging: Infected Macrophages. Assay plates (384-well) were prepared by adding 250nL of compound to each well. For single shot assay, the final compound concentration was 5 uM. […] Automated image analysis was performed with a script developed on Acapella High Content Imaging and Analysis Software (PerkinElmer). Output: Percent of infected macrophage cells were reported for each well. It is filed as functional, organism-based, Homo sapiens. Particulars: THP-1.

Data set [7] has as its system Leishmania donovani. Put plainly: GSK_TCAKS: pIC50 Leishmania donovani Imaging: Amastigotes/Macrophages. Assay plates (384-well) were prepared by adding 250nL of compound to each well. For single shot assay, the final compound concentration was 5 uM. […] Automated image analysis was performed with a script developed on Acapella High Content Imaging and Analysis Software (PerkinElmer). Output: Average number of amastigotes per macrophage cell were reported for each well. Particulars: THP-1. It is filed as functional, organism-based, Homo sapiens.

The subject of data set [8] is Leishmania donovani. Put plainly: GSK_TCAKS: pIC50 Leishmania donovani Imaging: THP-1 Host Macrophages. Assay plates (384-well) were prepared by adding 250nL of compound to each well. For single shot assay, the final compound concentration was 5 uM. […] Automated image analysis was performed with a script developed on Acapella High Content Imaging and Analysis Software (PerkinElmer). Output: THP-1 cell count were reported for each well. The data set is classed as functional, organism-based, Homo sapiens.

The test system of data set [9] is Trypanosoma brucei brucei. Put plainly: GSK_TCAKS: pIC50 Trypanosoma brucei viability assay using fluorescence intensity. Assay plates (1536-well) were prepared by dispensing 25nL of compound solution per well using an Echo acoustic dispenser (Labcyte). Particulars: Lister 427, 2 h. The data set is classed as functional, organism-based.
The subject of data set [10] is Trypanosoma brucei brucei. Put plainly: GSK_TCAKS: pIC50 Trypanosoma brucei viability assay using luminiscence. Assay plates (1536-well) were prepared. T. brucei cultures were harvested and counted in a CASY cell counter. A parasite suspension was prepared at a final concentration of 5 * 10^4 cells/mL in complete HMI9 medium and 6uL was dispensed to all wells containing compounds using a Multidrop Combi dispenser. 6uL of HMI9 media with 0.4% DMSO were dispensed to control columns. Plates were incubated for 24 h at 37C, 5% CO2 then tempered for 10 min at room temperature. ATP content was quantified by adding 4 uL of CellTiter-Glo Reagent (Promega) according to the manufacturer's instructions. Luminescence was measured using a ViewLux. It is filed as functional, organism-based. The settings on record: Lister 427, CASY. (In general: In ATP-based viability assays light output follows the ATP content of the culture.)

Data set [11] in a line: GSK_TCAKS: pIC50 HepG2 human cell line viability assay using luminiscence. […] Seeding density was checked to ensure that new mono-layers were not more than 50% confluent at the time of harvesting. Cell suspension was added to 500 mL of the same medium at a final density of 1.2 * 10^5 cells/mL. This cell suspension was dispensed (25 uL, 3000 cells per well) into 384-well clear-bottom plates using a Multidrop Combi dispenser. Prior to addition of the cell suspension, the screening compounds (250 nL) were pre-dispensed into the plates with an Echo liquid handler. Plates were incubated for 48 h at 37C, 5% CO2. After incubation, plates equilibrated at room temperature for 30 min before proceeding to develop the luminescent signal. The signal developer, CellTiter-Glo Reagent, was allowed to equilibrate at room temperature for 30 min and added to the plates (25uL per well) using a Multidrop Combi dispenser. Plates were left for 10 min at room temperature for stabilization and then read using a ViewLux. The data set is classed as toxicity, cell-based.

The next data set concerns NIH3T3. Put plainly: GSK_TCAKS: pIC50 NIH 3T3 cell line viability assay using luminiscence. Tissue culture surface treated assay plates (1536-well) were used. […] The 100% cells survival control was determined exposing the host-cells to a 0.5% DMSO concentration, whereas the 100% toxicity control was achieved by seeding the cells in presence of Amphotericin B at 50uM. Plates were incubated for four days at 37C, 5% CO2. The assay readout was developed by addition of 5uL of CellTiter-Glo Reagent following the manufacturer's instructions. Luminiscence was measured using a ViewLux. The settings on record: Mus musculus, NIH3T3, 96 h. The data set is classed as functional, cell-based.

Data set [12] has as its target Sterol 14-alpha demethylase (Trypanosoma cruzi (strain CL Brener), UniProt Q7Z1V1). Put plainly: GSK_TCAKS: pIC50 CYP51 from Trypanosoma cruzi. The data set is classed as functional.

Chain of Sterol 14-alpha demethylase (Q7Z1V1 whole entry): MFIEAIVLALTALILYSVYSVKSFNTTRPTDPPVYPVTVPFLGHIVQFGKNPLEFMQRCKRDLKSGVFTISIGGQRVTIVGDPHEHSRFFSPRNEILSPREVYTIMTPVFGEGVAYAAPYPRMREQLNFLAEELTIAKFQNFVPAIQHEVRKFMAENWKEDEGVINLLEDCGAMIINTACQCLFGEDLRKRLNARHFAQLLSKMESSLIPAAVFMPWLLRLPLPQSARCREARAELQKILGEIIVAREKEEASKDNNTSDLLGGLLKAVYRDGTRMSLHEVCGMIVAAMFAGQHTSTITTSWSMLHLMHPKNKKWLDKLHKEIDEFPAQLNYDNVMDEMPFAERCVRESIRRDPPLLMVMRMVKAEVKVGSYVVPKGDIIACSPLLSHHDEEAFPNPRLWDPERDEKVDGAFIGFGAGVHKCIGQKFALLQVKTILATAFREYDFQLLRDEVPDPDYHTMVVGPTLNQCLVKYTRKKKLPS

In the case of `CS(=O)(=O)c1ccc(CC(=O)Nc2nc(-c3ccc(Cl)s3)cs2)cc1`, the IC50 with Trypanosoma cruzi [1] was 398 nM; with Trypanosoma cruzi [2], 316 nM; with Trypanosoma cruzi [3], 398 nM; in the data set on Trypanosoma cruzi [4] it was 15.8 µM; in the data set with Leishmania donovani [5], above 50100 nM; in the data set on Leishmania donovani [6], above 50.1 µM. Besides, the IC50 with Leishmania donovani [7] was above 50.1 µM; in the data set with Leishmania donovani [8], 15.8 µM; in data set [9] it was 10 µM; in data set [10], above 39.8 µM; with NIH3T3 it was above 50.1 µM; in data set [12] it was above 100 µM. This compound also gave a 50% inhibitory concentration (IC50) at 48 h in [11] above 100 µM.

`COc1ccc(-c2cc(C)no2)cc1S(=O)(=O)Nc1ccc(F)c(Cl)c1`: the IC50 with Trypanosoma cruzi [1] is 1580 nM; in the data set on Trypanosoma cruzi [2], 3160 nM; in the data set on Trypanosoma cruzi [3], 3980 nM; with Trypanosoma cruzi [4], 50.1 µM; in the data set on Leishmania donovani [5] it was 25100 nM; in the data set on Leishmania donovani [6], 25.1 µM. In addition, the IC50 in the data set with Leishmania donovani [7] is 20 µM; with Leishmania donovani [8], 31.6 µM; in [9], 15.8 µM; in data set [10] it was 25.1 µM; in the data set on NIH3T3 it was 25.1 µM; in data set [12] it was above 100 µM. In data set [11], this compound had an IC50 at 48 h of 79.4 µM.

In the case of `COc1ccc(NS(=O)(=O)c2cc(-c3cc(C)n[nH]3)ccc2C)cc1OC`, the IC50 with Trypanosoma cruzi [1] was 1410 nM; with Trypanosoma cruzi [2] it was 2000 nM; in the data set with Trypanosoma cruzi [3] it was 1260 nM; in the data set on Trypanosoma cruzi [4], above 50.1 µM; in the data set on Leishmania donovani [5] it was 1000 nM; with Leishmania donovani [6], 10 µM. Moreover, the IC50 was 7.94 µM in the data set with Leishmania donovani [7]; above 50.1 µM with Leishmania donovani [8]; 0.316 µM in data set [9]; 0.631 µM in data set [10]; above 50.1 µM with NIH3T3; 39.8 µM in data set [12]. The compound further showed an IC50 at 48 h in data set [11] above 100 µM.

On to `O=S(=O)(c1cccc(CSc2nnc(-c3ccc4c(c3)OCO4)o2)c1)N1CCOCC1`, for which the IC50 is 224 nM in the data set with Trypanosoma cruzi [1]; 100 nM in the data set on Trypanosoma cruzi [2]; 39.8 nM with Trypanosoma cruzi [3]; 25.1 µM in the data set on Trypanosoma cruzi [4]; 501 nM in the data set on Leishmania donovani [5]; 0.794 µM with Leishmania donovani [6]. For the same compound, the half-inhibitory concentration (IC50) with Leishmania donovani [7] is 0.251 µM; with Leishmania donovani [8] it was above 50.1 µM; in data set [9], 31.6 µM; in data set [10] it was above 39.8 µM; in the data set with NIH3T3 it was 15.8 µM; in [12], 12.6 µM. In addition, in [11], the IC50 at 48 h is above 100 µM.

Turning to `O=C(Nc1ccc(C(=O)N2CCCC2c2ccc3c(c2)OCCCO3)cc1)c1ccco1` (stereo not given), the IC50 with Trypanosoma cruzi [1] was 501 nM; in the data set on Trypanosoma cruzi [2], 1000 nM; with Trypanosoma cruzi [3], 631 nM; in the data set with Trypanosoma cruzi [4], above 50.1 µM; in the data set with Leishmania donovani [5], 794 nM; with Leishmania donovani [6], 6.31 µM. The half-inhibitory concentration (IC50) in the data set on Leishmania donovani [7] was 3.16 µM; in the data set on Leishmania donovani [8] it was above 50.1 µM; in data set [9], 0.2 µM; in [10], 0.316 µM; with NIH3T3, above 50.1 µM; in data set [12], 63.1 µM. Moreover, the half-maximal inhibitory concentration (IC50) at 48 h in data set [11] was above 100 µM.
